Data on 1 molecule can be found in patent publication US10501575B2, “Biomimetic fluoroscopic films” (THE BOARD OF REGENTS OF THE UNIVERSITY OF TEXAS SYSTEM, priority 2015, dated 2019).

Assay [1] concerns IL-1β. The assay can be described thus: Anti-inflammatory effect, IL-1β ELISA in LPS stimulated RAW 264.7 cells. It is filed as cell-based, mouse. The note with it: for Cytokine Concentration IL-1β: LPS, 24 h. The source says:
(§1) Therapeutic effect. […] PTNP concentrations were compared to free dexamethasone in media, which simulates systemic delivery. The experimental design included the expected concentrations of dexamethasone released from PTNP groups.
(In an ELISA, binding on a coated surface is turned into a signal by an enzyme label.)

For assay [2], the system named is TNF-α. The assay can be described thus: Anti-inflammatory effect, TNF-α ELISA in LPS stimulated RAW 264.7 cells. It is filed as cell-based, mouse. Particulars: for Cytokine Concentration TNF-α: LPS, 24 h.
Source text: as §1

In the case of `C[C@@H]1C[C@H]2[C@@H]3CCC4=CC(=O)C=C[C@]4(C)[C@@]3(F)[C@@H](O)C[C@]2(C)[C@@]1(O)C(=O)CO` [Free DEX, dexamethasone], the “concentration required to maintain IL-1β control concentration levels in the presence of stimuli” value in assay [1] (ELISA) is 0.23 mg/mL. Also, the “Cytokine Concentration IL-1β” value stood at 1009 ± 7 pg/mL in assay [1] (Free DEX 0.10 mg/mL), 759 ± 7 pg/mL in assay [1] (Free DEX 0.50 mg/mL), 491 ± 2 pg/mL in assay [1] (Free DEX 1.00 mg/mL) and 489 ± 4 pg/mL in assay [1] (Free DEX 2.00 mg/mL). For the same molecule, the “concentration required to maintain TNF-α control concentration levels in the presence of stimuli” value in assay [2] (ELISA) was 0.23 mg/mL. The “Cytokine Concentration TNF-α” value is 78 ± 3 pg/mL in assay [2] (Free DEX 0.10 mg/mL), 66 ± 3 pg/mL in assay [2] (Free DEX 0.50 mg/mL), 50 ± 3 pg/mL in assay [2] (Free DEX 1.00 mg/mL) and 35 ± 6 pg/mL in assay [2] (Free DEX 2.00 mg/mL). In addition, the TNF-α versus control entry in assay [2] (free dexamethasone 0.10-0.50 mg/mL) is reported as “lowered TNF-α but not enough to be comparable to the control”. In addition, in assay [2] (free dexamethasone in media 1 and 2 mg/mL), the “TNF-α concentrations versus control” value is given as “lowered TNF-α concentrations to control levels”.
